Data reported in ChEMBL document CHEMBL3885861, “Open TG-GATES”.

Organism: Rattus norvegicus
Assay: Open TG-GATES - Regimen: Daily Repeat
Type: toxicity, organism-based, Sprague-Dawley
Design: regimen Daily Repeat, gender Male, age 6 weeks
Details: in vivo, po, 1000 mg/kg, route gavage, dose level High; for APTT / Bas / Eos / Fbg / Hb / Ht / Lym / MCH / MCHC / MCV / Mono / Neu / PT / Plat / RBC / Ret / WBC: tissue Blood; for KIDNEY_L / KIDNEY_R / KIDNEY_TOTAL: tissue Kidney; for LIVER: tissue Liver; for A/G / ALP / ALT / AST / BUN / CRE / Ca / Cl / DBIL / GLC / IP / K / LDH / Na / PL / RALB / TBIL / TC / TG / TP / gamma-GTP: tissue Plasma

O=C(O)c1cc(/N=N/c2ccc(S(=O)(=O)Nc3ccccn3)cc2)ccc1O [SULFASALAZINE]
TERMINAL_BW (72 h, time 3 day): 221.5 g | APTT (72 h, time 3 day): 18 s | Bas (72 h, time 3 day): 0% | Eos (72 h, time 3 day): 0.8% | Fbg (72 h, time 3 day): 215 mg/dL | Hb (72 h, time 3 day): 14.4 g/dL | Ht (72 h, time 3 day): 42% | Lym (72 h, time 3 day): 87.2% | MCH (72 h, time 3 day): 21.4 pg | MCHC (72 h, time 3 day): 34.2% | MCV (72 h, time 3 day): 62.4 fL | Mono (72 h, time 3 day): 2% | Neu (72 h, time 3 day): 8.8% | PT (72 h, time 3 day): 13.1 s | Plat (72 h, time 3 day): 127.1 x10_4/uL | RBC (72 h, time 3 day): 674.2 x10_4/ul | Ret (72 h, time 3 day): 3.4% | WBC (72 h, time 3 day): 93.4 x10_2/uL | KIDNEY_L (72 h, time 3 day): 1 g | KIDNEY_R (72 h, time 3 day): 1 g | KIDNEY_TOTAL (72 h, time 3 day): 1.9 g | LIVER (72 h, time 3 day): 10.2 g | A/G (72 h, time 3 day): 1.6 | ALP (72 h, time 3 day): 888.8 IU/L | ALT (72 h, time 3 day): 49.4 IU/L | AST (72 h, time 3 day): 77.4 IU/L | BUN (72 h, time 3 day): 20.8 mg/dL | CRE (72 h, time 3 day): 0.4 mg/dL | Ca (72 h, time 3 day): 10.8 mg/dL | Cl (72 h, time 3 day): 103.6 meq/L | DBIL (72 h, time 3 day): 0.094 mg/dL | GLC (72 h, time 3 day): 187.4 mg/dL | IP (72 h, time 3 day): 6.8 mg/dL | K (72 h, time 3 day): 3.6 meq/L | LDH (72 h, time 3 day): 252.8 IU/L | Na (72 h, time 3 day): 141 meq/L | PL (72 h, time 3 day): 149.2 mg/dL | RALB (72 h, time 3 day): 3.5 g/dL | TBIL (72 h, time 3 day): 0.1 mg/dL | TC (72 h, time 3 day): 78.4 mg/dL | TG (72 h, time 3 day): 70 mg/dL | TP (72 h, time 3 day): 5.6 g/dL | gamma-GTP (72 h, time 3 day): 1.4 IU/L | TERMINAL_BW ([…], time 7 day): 246.1 g | TERMINAL_BW ([…], time 14 day): 276.8 g | TERMINAL_BW ([…], time 28 day): 334.1 g | APTT ([…], time 7 day): 19.3 s | Bas ([…], time 7 day): 0% | Eos ([…], time 7 day): 0.6% | Fbg ([…], time 7 day): 197 mg/dL | Hb ([…], time 7 day): 14.1 g/dL | Ht ([…], time 7 day): 40.8% | Lym ([…], time 7 day): 86.2% | MCH ([…], time 7 day): 21.2 pg | MCHC ([…], time 7 day): 34.7% | MCV ([…], time 7 day): 61.1 fL | Mono ([…], time 7 day): 2.6% | Neu ([…], time 7 day): 9.6% | PT ([…], time 7 day): 13.6 s | Plat ([…], time 7 day): 106.1 x10_4/uL | RBC ([…], time 7 day): 667.6 x10_4/ul | Ret ([…], time 7 day): 4.5% | WBC ([…], time 7 day): 106.7 x10_2/uL | APTT ([…], time 14 day): 19.4 s | Bas ([…], time 14 day): 0% | Eos ([…], time 14 day): 0.8% | Fbg ([…], time 14 day): 200.6 mg/dL | Hb ([…], time 14 day): 15.2 g/dL | Ht ([…], time 14 day): 42.7% | Lym ([…], time 14 day): 85.4% | MCH ([…], time 14 day): 20.2 pg | MCHC ([…], time 14 day): 35.6% | MCV ([…], time 14 day): 57 fL | Mono ([…], time 14 day): 1.8% | Neu ([…], time 14 day): 10.8% | PT ([…], time 14 day): 13.4 s | Plat ([…], time 14 day): 106.3 x10_4/uL | RBC ([…], time 14 day): 750.2 x10_4/ul | Ret ([…], time 14 day): 3% | WBC ([…], time 14 day): 132.9 x10_2/uL | APTT ([…], time 28 day): 18.9 s | Bas ([…], time 28 day): 0% | Eos ([…], time 28 day): 1% | Fbg ([…], time 28 day): 206.2 mg/dL | Hb ([…], time 28 day): 14.9 g/dL | Ht ([…], time 28 day): 41.8% | Lym ([…], time 28 day): 84% | MCH ([…], time 28 day): 19.5 pg | MCHC ([…], time 28 day): 35.6% | MCV ([…], time 28 day): 54.7 fL | Mono ([…], time 28 day): 1.8% | Neu ([…], time 28 day): 12.6% | PT ([…], time 28 day): 13.3 s | Plat ([…], time 28 day): 101.4 x10_4/uL | RBC ([…], time 28 day): 763.6 x10_4/ul | Ret ([…], time 28 day): 4.2% | WBC ([…], time 28 day): 116.9 x10_2/uL | KIDNEY_L ([…], time 7 day): 1 g | KIDNEY_R ([…], time 7 day): 1 g | KIDNEY_TOTAL ([…], time 7 day): 2.1 g | KIDNEY_L ([…], time 14 day): 1.1 g | KIDNEY_R ([…], time 14 day): 1.2 g | KIDNEY_TOTAL ([…], time 14 day): 2.2 g | KIDNEY_L ([…], time 28 day): 1.3 g | KIDNEY_R ([…], time 28 day): 1.3 g | KIDNEY_TOTAL ([…], time 28 day): 2.6 g | LIVER ([…], time 7 day): 10.8 g | LIVER ([…], time 14 day): 11.1 g | LIVER ([…], time 28 day): 12.9 g | A/G ([…], time 7 day): 1.6 | ALP ([…], time 7 day): 756.2 IU/L | ALT ([…], time 7 day): 46 IU/L | AST ([…], time 7 day): 74 IU/L | BUN ([…], time 7 day): 19.8 mg/dL | CRE ([…], time 7 day): 0.4 mg/dL | Ca ([…], time 7 day): 10.7 mg/dL | Cl ([…], time 7 day): 104.6 meq/L | DBIL ([…], time 7 day): 0.068 mg/dL | GLC ([…], time 7 day): 202.8 mg/dL | IP ([…], time 7 day): 7.2 mg/dL | K ([…], time 7 day): 3.4 meq/L | LDH ([…], time 7 day): 216.4 IU/L | Na ([…], time 7 day): 142.4 meq/L | PL ([…], time 7 day): 118 mg/dL | RALB ([…], time 7 day): 3.5 g/dL | TBIL ([…], time 7 day): 0.1 mg/dL | TC ([…], time 7 day): 63 mg/dL | TG ([…], time 7 day): 36.4 mg/dL | TP ([…], time 7 day): 5.7 g/dL | gamma-GTP ([…], time 7 day): 1.4 IU/L | A/G ([…], time 14 day): 1.6 | ALP ([…], time 14 day): 776.2 IU/L | ALT ([…], time 14 day): 47.6 IU/L | AST ([…], time 14 day): 75.2 IU/L | BUN ([…], time 14 day): 21.2 mg/dL | CRE ([…], time 14 day): 0.5 mg/dL | Ca ([…], time 14 day): 10.7 mg/dL | Cl ([…], time 14 day): 103 meq/L | DBIL ([…], time 14 day): 0.068 mg/dL | GLC ([…], time 14 day): 186.2 mg/dL | IP ([…], time 14 day): 6.7 mg/dL | K ([…], time 14 day): 3.5 meq/L | LDH ([…], time 14 day): 196.6 IU/L | Na ([…], time 14 day): 141.8 meq/L | PL ([…], time 14 day): 122.2 mg/dL | RALB ([…], time 14 day): 3.7 g/dL | TBIL ([…], time 14 day): 0.1 mg/dL | TC ([…], time 14 day): 67.2 mg/dL | TG ([…], time 14 day): 33.8 mg/dL | TP ([…], time 14 day): 6.1 g/dL | gamma-GTP ([…], time 14 day): 1.4 IU/L | A/G ([…], time 28 day): 1.6 | ALP ([…], time 28 day): 655 IU/L | ALT ([…], time 28 day): 44.8 IU/L | AST ([…], time 28 day): 68.6 IU/L | BUN ([…], time 28 day): 19.8 mg/dL | CRE ([…], time 28 day): 0.5 mg/dL | Ca ([…], time 28 day): 10.4 mg/dL | Cl ([…], time 28 day): 103.6 meq/L | DBIL ([…], time 28 day): 0.074 mg/dL | GLC ([…], time 28 day): 206.8 mg/dL | IP ([…], time 28 day): 6.2 mg/dL | K ([…], time 28 day): 3.3 meq/L | LDH ([…], time 28 day): 137.6 IU/L | Na ([…], time 28 day): 143.2 meq/L | PL ([…], time 28 day): 108.6 mg/dL | RALB ([…], time 28 day): 3.8 g/dL | TBIL ([…], time 28 day): 0.1 mg/dL | TC ([…], time 28 day): 62.2 mg/dL | TG ([…], time 28 day): 27.6 mg/dL | TP ([…], time 28 day): 6.1 g/dL | gamma-GTP ([…], time 28 day): 1.4 IU/L
